Test results reported in ChEMBL document CHEMBL4765227, “Hit to lead optimization of a series of N-[4-(1,3-benzothiazol-2-yl)phenyl]acetamides as monoacylglycerol lipase inhibitors with potential anticancer activity” (Eur J Med Chem, 2016).

Key:
[1] = biological target: T1, Monoglyceride lipase (Homo sapiens, UniProt Q99685); assay: Inhibition of human MAGL using 4-Nitrophenylacetate as substrate
T1 sequence (Q99685 whole entry): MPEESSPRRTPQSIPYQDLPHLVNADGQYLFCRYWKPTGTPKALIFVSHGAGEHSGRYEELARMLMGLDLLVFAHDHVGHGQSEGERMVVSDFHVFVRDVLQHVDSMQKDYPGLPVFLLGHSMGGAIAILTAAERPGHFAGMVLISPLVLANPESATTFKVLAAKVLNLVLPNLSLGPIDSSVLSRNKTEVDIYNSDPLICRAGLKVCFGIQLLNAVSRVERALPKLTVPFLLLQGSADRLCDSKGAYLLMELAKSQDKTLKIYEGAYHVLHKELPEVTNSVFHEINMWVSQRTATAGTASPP

[2] = biological target: T1, Monoglyceride lipase; assay: Inhibition of MAGL (unknown origin)
[3] = biological target: T1, Monoglyceride lipase; assay: Inhibition of human MAGL
[4] = biological target: T1, Monoglyceride lipase; assay: Inhibition of human MAGL transfected in human HEK293T cells assessed as reduction in ABPP binding by competitive binding assay; type: cell-based

**Q.** For COc1nn(-c2ccc(NC(=O)OCc3ccccc3)c(C)c2)c(=O)o1, which IC50 [1] is on record?
**A.** 0.424 µM

**Q.** For CCCCNC(=O)Oc1ccc(C2=NCCS2)cc1, which IC50 [2] is on record?
**A.** 31 µM

**Q.** O=C(N1CCC(C(c2ccc3c(c2)OCO3)c2ccc3c(c2)OCO3)CC1)n1cncn1 was tested. Which IC50 [3] did it give?
**A.** < 0.0004 µM

**Q.** CN(C)C(=O)n1nnc(Cc2ccc(-c3ccccc3)cc2)n1 was tested. Which IC50 [2] did it give?
**A.** 0.0009 µM

**Q.** O=C(Nc1cccc(-c2ccccc2)c1)OC1CCCCC1 was tested. Which IC50 [2] did it give?
**A.** 28 µM

**Q.** O=C(OC(C(F)(F)F)C(F)(F)F)N1CCC(C(O)(c2ccc3c(c2)OCO3)c2ccc3c(c2)OCO3)CC1 was tested. Which IC50 [4] did it give?
**A.** 0.0059 µM

**Q.** Which IC50 [1] does the source give for O=C(CNc1ccc([N+](=O)[O-])cc1)Nc1ccc(-c2nc3ccccc3s2)cc1 here?
**A.** > 100 µM
